{"source": "paper PMC5045374", "about": "(Oncotarget, 2016)", "key": {"[1]": {"test_system": "neuroblastoma tumor growth", "conditions": "orthotopic xenograft tumor growth and TH-ALKF1174L/TH-MYCN mouse model; cited from earlier work"}, "ALK-positive NSCLC": {"test_system": "ALK-positive NSCLC", "conditions": "cited from earlier work"}, "[2]": {"conditions": "inferred from CNS responses in NSCLC patients; cited from earlier work"}, "ALK mutants": {"test_system": "ALK mutants", "experiment": "Neurite outgrowth assay in PC12 cells, ALK mutants", "assay_type": "cell-based, human", "description": "PC12 cells (2 x10^6) co-transfected, in 100 μl of Ingenio electroporation solution (Minus Bio LCC), with pEGFPN1 (Clonetech) (0.5 ng) and ALK-mutant (0.75 ng) or ALK-wt (0.75 ng) as indicated were seeded sparingly into 24-well plates. ALK-wild type was stimulated with 1 μg/ml mAb31. After 48 hours post transfection, the fraction of GFP-positive and neurite carrying cells versus GFP-positive cells were analyzed under a Zeiss Axiovert 40 CFL microscope. A cell was considered as neurite-carrying if it had neurite(s) that reached at least twice the length of the diameter of a normal cell body. The experiments were performed at least three times in triplicates."}, "CLB-BAR cells": {"test_system": "CLB-BAR cells", "experiment": "Xenograft neuroblastoma model in vivo", "parameters": "species or system BalbC/NUDE mice", "text": "In the first investigation mice (n=3) were employed and in the second investigation mice (n=5) were employed. […] In the second investigation where 5 mice were employed a subset of mice (n=2) were released from treatment after 14 days, for a further 8 days (blue curve). […] C. […] Data are means +/− SE from 8 tumours, p values indicated; Student's t test.\nFemale Balbc/nude mice (Charles River, Germany) at 5-6 weeks age were maintained in a pathogen-free environment. For xenografts, 2.5 million CLB-BAR cells (MYCN amplified, ALK (Δ4-11) amplified) were injected subcutaneously. Once tumor volume achieved about 50mm^3, drug was given at 50 mg/kg body weight, by oral gavage, once daily, continuously for 14 days. Mice were grouped by tumor volume randomly. Tumor volume was calculated with the following equation: V=0.5236×L×W^2 (V=volume, L=longest, W=width).\nMice were sacrificed and tumors were collected. Tumors were fixed in 4% PFA, followed by 15% and 30% sucrose in PBS. Tumors were embedded in OCT compound (VWR chemicals) and frozen at −80°C. […] Secondary antibodies (Cell Signaling Tech., Danver, MA) were applied for 2 hours at room temperature. Impact DAB (Vector Laboratories, SK 4105) was employed for staining followed by hematoxylin cross-staining (Sigma-Aldrich). After mounting sections, images were taken using an Axio zoom V16 stereo microscope (Zeiss)."}, "[3]": {"test_system": "IMR32 (ALK-WT, non-ALK addicted) neuroblastoma cells", "experiment": "Proliferation assay (resazurin cell viability), IMR32", "assay_type": "cell-based, human", "conditions": "IMR32, 72 hours", "description": "(§1) Cells were seeded at 15,000 per well with serial dilutions of the indicated inhibitors. After 72 hours cell viability was assessed by resazurin (Sigma, Sweden). IC50 values were calculated with GraphPad Prism 6.0 by fitting data to a log (inhibitor concentration) vs. normalized response (variable slope) equation. Each experiment was performed in duplicate and repeated at least three times."}, "[4]": {"test_system": "CLB-BAR (ALK-Δ4-11, ALK addicted) neuroblastoma cells", "experiment": "Proliferation assay (resazurin cell viability), CLB-BAR", "assay_type": "cell-based", "conditions": "Homo sapiens, 72 hours, read-out: IC50 (cell growth)", "description": "as §1"}, "[5]": {"test_system": "CLB-GE (ALK-F1174V, ALK addicted) neuroblastoma cells", "experiment": "Proliferation assay (resazurin cell viability), CLB-GE", "assay_type": "cell-based", "conditions": "Homo sapiens, 72 hours, read-out: IC50 (cell growth)", "description": "as §1"}, "[6]": {"test_system": "CLB-PE (ALK-WT, non-ALK addicted) neuroblastoma cells", "experiment": "Proliferation assay (resazurin cell viability), CLB-PE", "assay_type": "cell-based, human", "conditions": "72 hours", "description": "as §1"}, "[7]": {"conditions": "immunoblotting, vs control group"}}, "data": [{"smiles": "C[C@@H](Oc1cc(-c2cnn(C3CCNCC3)c2)cnc1N)c1c(Cl)ccc(F)c1Cl", "note": "[crizotinib]", "values": [{"measurement": "efficacy as a single agent treatment", "setting": "[1]", "result": "limited efficacy"}]}, {"smiles": "COc1cc(N2CCC(N3CCN(C)CC3)CC2)ccc1Nc1ncc(Cl)c(Nc2ccccc2P(C)(C)=O)n1", "note": "[brigatinib]", "values": [{"measurement": "patients with non-measureable CNS lesions with disappearance of all lesions", "setting": "ALK-positive NSCLC; 8/26 patients", "result": 31, "unit": "%"}, {"measurement": "patients responding to treatment", "setting": "ALK-positive NSCLC; crizotinib refractory ALK-positive NSCLC patients", "result": "about 72%"}, {"measurement": "response in patients with baseline CNS metastases", "setting": "ALK-positive NSCLC; radiological review, 6/12 patients", "result": 50, "unit": "%"}, {"measurement": "blood-brain barrier penetration", "setting": "[2]", "result": "able to penetrate the blood-brain barrier"}, {"measurement": "block of neurite outgrowth compared with crizotinib", "setting": "ALK mutants; ALK-G1269A, ALK-R1275 and ALK-R1192P, brigatinib 15 and 30 nM vs crizotinib 250 nM", "result": "more efficiently than crizotinib"}, {"measurement": "neurite outgrowth of all tested ALK mutants", "setting": "ALK mutants; PC12 cells, 48 hours", "result": "could abrogate neurite outgrowth"}, {"measurement": "tumor weight", "setting": "CLB-BAR cells; 50 mg/kg once daily oral gavage, 14 days, vs controls, p=0.01", "result": "significantly reduced"}, {"measurement": "tumor volume / tumor growth", "setting": "CLB-BAR cells; 50 mg/kg once daily oral gavage, 14 days, vs vehicle, p=0.0004", "result": "considerably inhibits proliferation of tumor growth"}, {"measurement": "side effect in vivo", "setting": "CLB-BAR cells; 50 mg/kg once daily, 14 days", "result": "no obvious side effect"}, {"measurement": "body weight of mice", "setting": "CLB-BAR cells; 50 mg/kg once daily, 14 days, p=0.9", "result": "did not show any variation"}, {"measurement": "MYCN protein levels in tumor material", "setting": "CLB-BAR cells; [7]", "result": "decreased protein levels"}, {"measurement": "phospho-ALK levels in tumor material", "setting": "CLB-BAR cells; [7]", "result": "decreased phospho-ALK levels"}, {"measurement": "phosphorylated ERK5 and AKT in tumor material", "setting": "CLB-BAR cells; [7]", "result": "reduced phosphorylation"}, {"measurement": "total ALK protein levels in tumor material", "setting": "CLB-BAR cells; [7]", "result": "No obvious change"}, {"measurement": "tumor volume/growth after discontinuation of treatment", "setting": "CLB-BAR cells; treatment discontinued after 14 days, for 8 days, n=2", "result": "increase in tumor volume/growth"}, {"measurement": "Ki-67 proliferation marker in excised tumor", "setting": "CLB-BAR cells; vs controls, p=0.0005", "result": "significantly reduced proliferation"}, {"measurement": "inhibition of cell growth", "setting": "[3]", "result": "Neither brigatinib nor crizotinib was able to inhibit growth"}, {"measurement": "IC50", "setting": "[4]", "result": "75.3 ± 8.89", "unit": "nM"}, {"measurement": "IC50", "setting": "[5]", "result": "100 ± 17.5", "unit": "nM"}, {"measurement": "inhibition of cell growth", "setting": "[6]", "result": "Neither brigatinib nor crizotinib was able to inhibit growth"}]}]}
